Laboratory results as given in paper PMC8963254, “Effects of Lysine N-ζ-Methylation in Ultrashort Tetrabasic Lipopeptides (UTBLPs) on the Potentiation of Rifampicin, Novobiocin, and Niclosamide in Gram-Negative Bacteria” (Antibiotics, 2022).
Read-outs that look alike come from different tables or passages of the source.

How the values were obtained:
MRSA ATCC 33592 = assay type: cell-based, Staphylococcus aureus; details: ATCC 33592, 18 h
Outline: (§1)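 MIC was determined by broth microdilution following CLSI guidelines. Serially varied compound concentrations were incubated with bacterial inoculum at 5 × 10^5 CFU/mL (final) for 18 h at 37 °C. Growth was scored as turbidity by absorbance at 590 nm.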

S. aureus ATCC 29213 = assay type: cell-based, Staphylococcus aureus; details: ATCC 29213, 18 h
Outline: as §1

E. faecalis ATCC 29212 [1] = assay type: cell-based, Enterococcus faecalis; details: ATCC 29212, 18 h
Outline: as §1

E. faecium ATCC 27270 [2] = assay type: cell-based, Enterococcus faecium; details: ATCC 27270, 18 h
Outline: as §1

[3] = test system: P. aeruginosa PA259-96196; assay: microbe, parasite or virus in culture; assay type: cell-based, Pseudomonas aeruginosa; details: PA259-96196, 18 h
Outline: as §1

[4] = test system: P. aeruginosa PA262-101856; assay: microbe, parasite or virus in culture; assay type: cell-based, Pseudomonas aeruginosa; details: PA262-101856, 18 h
Outline: as §1

K. pneumoniae 113250 [5] = assay: microbe, parasite or virus in culture; assay type: cell-based, Klebsiella pneumoniae; details: 113250, 18 h
Outline: as §1

MRSE 61589 = assay type: cell-based, Staphylococcus epidermidis; details: 61589, 18 h
Outline: as §1

MSSE 81388 = assay type: cell-based, Staphylococcus epidermidis; details: 18 h
Outline: as §1

[6] = test system: P. aeruginosa PA259-96196; assay type: cell-based, Pseudomonas aeruginosa; details: for MICUTBLP: UTBLP alone
Outline: (§2)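 Values derive from a two-agent checkerboard with an 18 h, 37 °C incubation. FICI cut-offs: ≤0.5 synergy, 0.5–4 additive, >4 antagonism.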

[7] = test system: P. aeruginosa PA262-101856; assay type: cell-based, Pseudomonas aeruginosa; details: for MICUTBLP: UTBLP alone
Outline: as §2

P. aeruginosa PAO1 = assay type: cell-based, Pseudomonas aeruginosa; details: for MICUTBLP: UTBLP alone
Outline: as §2

E. coli 94393 = assay type: cell-based, Escherichia coli; details: for MICUTBLP: UTBLP alone
Outline: as §2

E. coli 94474 = assay type: cell-based, Escherichia coli; details: for MICUTBLP: UTBLP alone
Outline: as §2

E. cloacae 118564 = assay type: cell-based, Enterobacter cloacae; details: for MICUTBLP: UTBLP alone
Outline: as §2

K. pneumoniae 113250 [8] = assay type: cell-based, Klebsiella pneumoniae; details: for MICUTBLP: UTBLP alone
Outline: as §2

E. faecalis ATCC 29212 [9] = assay type: cell-based, Enterococcus faecalis
Outline: as §2

E. faecium ATCC 27270 [10] = assay type: cell-based, Enterococcus faecium
Outline: as §2

[11] = UTBLP in combination with novobiocin
[12] = UTBLP in combination with rifampicin
[13] = novobiocin in combination with the UTBLP
[14] = rifampicin in combination with the UTBLP
[15] = UTBLP in combination with chloramphenicol
[16] = chloramphenicol in combination with the UTBLP
[17] = UTBLP alone, plate with chloramphenicol

CCCCCCCC(=O)N[C@@H](CCCCN(C)C)C(=O)NCCCN(CCCNC(=O)[C@H](CCCCN(C)C)NC(=O)CCCCCCC)CC(=O)N[C@@H](CCCCN(C)C)C(N)=O [UTBLP 3] showed an MIC (MRSA ATCC 33592) of over 128 µg/mL, an MIC (S. aureus ATCC 29213) of over 128 µg/mL and an MIC (E. faecalis ATCC 29212 [1]) of over 128 µg/mL. The MIC (E. faecium ATCC 27270 [2]) was over 128 µg/mL, the MIC [3] was over 128 µg/mL and the MIC [4] was over 128 µg/mL. For the same compound, the MIC (K. pneumoniae 113250 [5]) was over 128 µg/mL, the MIC (MRSE 61589) was over 128 µg/mL and the MIC (MSSE 81388) was over 128 µg/mL. The Interpretation ([6]; UTBLP + novobiocin) was “Additive (0.5 < x ≤ 4 is additive)”, the Interpretation ([6]; UTBLP + rifampicin) was “Additive (0.5 < x ≤ 4 is additive)” and the MICUTBLP ([6]; plate with novobiocin) was over 128 µg/mL. For the same compound, the MICUTBLP ([6]; plate with rifampicin) was over 128 µg/mL, the “MICUTBLP [MICcombo]” value [6, 11] was 0.25 µg/mL and the “MICUTBLP [MICcombo]” value [6, 12] was 16 µg/mL. The “MICantibiotic [MICcombo]” value [6, 13] was 2048 µg/mL, the “MICantibiotic [MICcombo]” value [6, 14] was 16 µg/mL and the Interpretation ([7]; UTBLP + novobiocin) was “Additive (0.5 < x ≤ 4 is additive)”. For the same compound, the Interpretation ([7]; UTBLP + rifampicin) was “Additive (0.5 < x ≤ 4 is additive)”, the MICUTBLP ([7]; plate with novobiocin) was over 128 µg/mL and the MICUTBLP ([7]; plate with rifampicin) was over 128 µg/mL. The “MICUTBLP [MICcombo]” value [7, 11] was 8 µg/mL, the “MICUTBLP [MICcombo]” value [7, 12] was 0.25 µg/mL and the “MICantibiotic [MICcombo]” value [7, 13] was 1024 µg/mL. The “MICantibiotic [MICcombo]” value [7, 14] was 512 µg/mL, the Interpretation (P. aeruginosa PAO1; UTBLP + chloramphenicol) was “Additive (0.5 < x ≤ 4 is additive)” and the Interpretation (P. aeruginosa PAO1; UTBLP + niclosamide) was “Additive (0.5 < x ≤ 4 is additive)”. For the same compound, the Interpretation (P. aeruginosa PAO1; UTBLP + novobiocin) was “Additive (0.5 < x ≤ 4 is additive)”, the Interpretation (P. aeruginosa PAO1; UTBLP + rifampicin) was “Additive (0.5 < x ≤ 4 is additive)” and the MICUTBLP (P. aeruginosa PAO1; plate with chloramphenicol) was over 128 µg/mL. For the same compound, the MICUTBLP (P. aeruginosa PAO1; plate with niclosamide) was over 128 µg/mL, the MICUTBLP (P. aeruginosa PAO1; plate with novobiocin) was over 128 µg/mL and the MICUTBLP (P. aeruginosa PAO1; plate with rifampicin) was over 128 µg/mL. The “MICUTBLP [MICcombo]” value (P. aeruginosa PAO1; [15]) was 8 µg/mL, the “MICUTBLP [MICcombo]” value (P. aeruginosa PAO1; UTBLP in combination with niclosamide) was 0.25 µg/mL and the “MICUTBLP [MICcombo]” value (P. aeruginosa PAO1; [11]) was 16 µg/mL. For the same compound, the “MICUTBLP [MICcombo]” value (P. aeruginosa PAO1; [12]) was 0.25 µg/mL, the “MICantibiotic [MICcombo]” value (P. aeruginosa PAO1; [16]) was 8 µg/mL and the “MICantibiotic [MICcombo]” value (P. aeruginosa PAO1; niclosamide in combination with the UTBLP) was 1024 µg/mL. For the same compound, the “MICantibiotic [MICcombo]” value (P. aeruginosa PAO1; [13]) was 512 µg/mL, the “MICantibiotic [MICcombo]” value (P. aeruginosa PAO1; [14]) was 16 µg/mL and the Interpretation (E. coli 94393; UTBLP + novobiocin) was “Synergy (FICI ≤ 0.5 is synergistic)”. For the same compound, the Interpretation (E. coli 94393; UTBLP + rifampicin) was “Synergy (FICI ≤ 0.5 is synergistic)”, the MICUTBLP (E. coli 94393; plate with novobiocin) was over 128 µg/mL and the MICUTBLP (E. coli 94393; plate with rifampicin) was over 128 µg/mL. The “MICUTBLP [MICcombo]” value (E. coli 94393; [11]) was 16 µg/mL, the “MICUTBLP [MICcombo]” value (E. coli 94393; [12]) was 16 µg/mL and the “MICantibiotic [MICcombo]” value (E. coli 94393; [13]) was 8 µg/mL. For the same compound, the “MICantibiotic [MICcombo]” value (E. coli 94393; [14]) was 1 µg/mL, the Interpretation (E. coli 94474; UTBLP + novobiocin) was “Synergy (FICI ≤ 0.5 is synergistic)” and the Interpretation (E. coli 94474; UTBLP + rifampicin) was “Additive (0.5 < x ≤ 4 is additive)”. The MICUTBLP (E. coli 94474; plate with novobiocin) was over 128 µg/mL, the MICUTBLP (E. coli 94474; plate with rifampicin) was over 128 µg/mL and the “MICUTBLP [MICcombo]” value (E. coli 94474; [11]) was 16 µg/mL. For the same compound, the “MICUTBLP [MICcombo]” value (E. coli 94474; [12]) was 16 µg/mL, the “MICantibiotic [MICcombo]” value (E. coli 94474; [13]) was 32 µg/mL and the “MICantibiotic [MICcombo]” value (E. coli 94474; [14]) was 2 µg/mL. The Interpretation (E. cloacae 118564; UTBLP + novobiocin) was “Synergy (FICI ≤ 0.5 is synergistic)”, the Interpretation (E. cloacae 118564; UTBLP + rifampicin) was “Synergy (FICI ≤ 0.5 is synergistic)” and the MICUTBLP (E. cloacae 118564; plate with novobiocin) was over 128 µg/mL. For the same compound, the MICUTBLP (E. cloacae 118564; plate with rifampicin) was over 128 µg/mL, the “MICUTBLP [MICcombo]” value (E. cloacae 118564; [11]) was 16 µg/mL and the “MICUTBLP [MICcombo]” value (E. cloacae 118564; [12]) was 8 µg/mL. For the same compound, the “MICantibiotic [MICcombo]” value (E. cloacae 118564; [13]) was 16 µg/mL, the “MICantibiotic [MICcombo]” value (E. cloacae 118564; [14]) was 2 µg/mL and the Interpretation (K. pneumoniae 113250 [8]; UTBLP + novobiocin) was “Synergy (FICI ≤ 0.5 is synergistic)”. The Interpretation (K. pneumoniae 113250 [8]; UTBLP + rifampicin) was “Synergy (FICI ≤ 0.5 is synergistic)”, the MICUTBLP (K. pneumoniae 113250 [8]; plate with novobiocin) was over 128 µg/mL and the MICUTBLP (K. pneumoniae 113250 [8]; plate with rifampicin) was over 128 µg/mL. The “MICUTBLP [MICcombo]” value (K. pneumoniae 113250 [8]; [11]) was 16 µg/mL, the “MICUTBLP [MICcombo]” value (K. pneumoniae 113250 [8]; [12]) was 16 µg/mL and the “MICantibiotic [MICcombo]” value (K. pneumoniae 113250 [8]; [13]) was 32 µg/mL. For the same compound, the “MICantibiotic [MICcombo]” value (K. pneumoniae 113250 [8]; [14]) was 4 µg/mL, the Interpretation (E. faecalis ATCC 29212 [9]; UTBLP + chloramphenicol) was “Additive (0.5 < x ≤ 4 is additive)” and the MICUTBLP (E. faecalis ATCC 29212 [9]; [17]) was over 128 µg/mL. For the same compound, the “MICUTBLP [MICcombo]” value (E. faecalis ATCC 29212 [9]; [15]) was 0.25 µg/mL, the “MICchloramphenicol [MICcombo]” value (E. faecalis ATCC 29212 [9]; [16]) was 8 µg/mL and the Interpretation (E. faecium ATCC 27270 [10]; UTBLP + chloramphenicol) was “Additive (0.5 < x ≤ 4 is additive)”. The MICUTBLP (E. faecium ATCC 27270 [10]; [17]) was over 128 µg/mL, the “MICUTBLP [MICcombo]” value (E. faecium ATCC 27270 [10]; [15]) was 0.25 µg/mL and the “MICchloramphenicol [MICcombo]” value (E. faecium ATCC 27270 [10]; [16]) was 8 µg/mL.
